Assay results taken from patent US6929927B2, “Method of evaluating antifungal agent” (Pola Chemical Industries Inc., priority 2000, dated 2005).
Converted amounts (≈) assume the structure as drawn.

Test system: Trichophyton mentagropytes TIMM 2789
Experiment: MIC by microdilution method in 96-well plates, inactivation of agents by lecithin and Tween 80
Format: cell-based
Conditions: TIMM2789, 168 h, 7 days
Method: MIC (minimum inhibitory concentration) was measured by means of the microdilution method by using 96-well plates to investigate the inactivation of respective agents caused by lecithin and Tween 80. The following four media were used. That is, a Sabouraud liquid medium (SDB) as a base medium, a medium obtained by adding 0.7% Tween 80 to SDB, a medium obtained by adding 1% lecithin to SDB, and a medium obtained by adding 0.7% Tween 80 and 1% lecithin to SDB were used. The following agents were used. That is, lanoconazole, bifonazole, and terbinafine were used. The following test strain was used. That is, Trichophyton mentagropytes TIMM 2789 (available from Institute of Medical Mycology of Teikyo University), which is generally used for the animal infection experiment, was used. The cultivation was performed at 28° C. for 7 days, while the microbial concentration upon the inoculation was about 10^4 conidia/ml. After the cultivation, it was regarded that MIC (μg/ml) was represented by the minimum agent concentration of the plate on which no microbial growth was observed by visual observation.

[1] = Sabouraud liquid medium (SDB), additive none, 28° C.

Question: What does the source list for c1ccc(-c2ccc(C(c3ccccc3)n3ccnc3)cc2)cc1 (stereo not drawn) [Bifonazole, bifonazole]?
Answer: MIC (SDB with 0.7% Tween 80, 28° C.): > 25 µg/mL; MIC (SDB with 1% lecithin, 28° C.): > 25 µg/mL; MIC [1]: 1.56 µg/mL (≈ 5.03 µM)

Question: With CN(C/C=C/C#CC(C)(C)C)Cc1cccc2ccccc12 [Terbinafine, terbinafine] as the molecule, how does the MIC (SDB with 0.7% Tween 80, 28° C.) read?
Answer: 0.312 µg/mL (≈ 1.07 µM)

Question: And the MIC (SDB with 1% lecithin, 28° C.)?
Answer: 0.078 µg/mL (≈ 0.268 µM)

Question: What about the MIC [1] of the same molecule?
Answer: ≤ 0.005 µg/mL

Question: With N#C/C(=C1/SCC(c2ccccc2Cl)S1)n1ccnc1 (stereo not drawn) [Lanoconazole, lanoconazole] as the molecule, how does the MIC (SDB with 0.7% Tween 80, 28° C.) read?
Answer: 0.312 µg/mL (≈ 0.975 µM)

Question: What about the MIC (SDB with 1% lecithin, 28° C.) of the same molecule?
Answer: 0.078 µg/mL (≈ 0.244 µM)

Question: And the MIC [1]?
Answer: ≤ 0.005 µg/mL
